According to US20120270237A9, “METHODS FOR THE IDENTIFICATION OF KINASE INTERACTING MOLECULES AND FOR THE PURIFICATION OF KINASE PROTEINS” (Cellzone AG, priority 2009, published 2012):

What was measured:
PLK4 = PLK4 (Homo sapiens, UniProt O00444); test: Kinobeads competition binding, L-363 cell lysate; design: endogenous in cells; host or cells: L-363 cells (treated with MG132 before harvest); settings: 10 μM free compound, L-363 lysate
Method: (§1) To one aliquot of cell lysate 10 μM of the free compound (FIG. 3, CZC31326) was added and allowed to bind to proteins in the lysate. Then the affinity matrix with the immobilized compound was added to capture proteins that were not interacting with the previously added free compound. Beads were separated from the lysate and bead bound proteins were eluted in SDS sample buffer and subsequently separated by SDS-Polyacrylamide gel electrophoresis (FIG. 8). Suitable gel bands were cut out and subjected to in-gel proteolytic digestion with trypsin. The second lysate aliquot was processed identically, however no free compound was added (DMSO solvent control). Peptides originating from samples 1 and 2 were labeled with iTRAQ reagents (iTRAQ 114 and iTRAQ 117) and the combined samples were analyzed with a nano-flow liquid chromatography system coupled online to a tandem mass spectrometer (LC-MS/MS) experiment followed by iTRAQ reporter ion quantification in the MS/MS spectra as described in Example 2.
(§2) For this experiment the human plasma cell leukaemia line L-363 was used (German Collection of Microorganisms and Cell Cultures, DSMZ number ACC49, Braunschweig, Germany). Cells were treated for three hours with 20 μM of the proteasome inhibitor MG132 (Z-Leu-Leu-Leu-al, Sigma C2211) prior to cell harvesting.

STK33 = STK33 (Homo sapiens, UniProt Q9BYT3); test: Kinobeads competition binding, L-363 cell lysate; design: endogenous in cells; host or cells: L-363 cells (treated with MG132 before harvest); settings: 10 μM free compound, L-363 lysate
STK33, sequence (Q9BYT3 whole entry): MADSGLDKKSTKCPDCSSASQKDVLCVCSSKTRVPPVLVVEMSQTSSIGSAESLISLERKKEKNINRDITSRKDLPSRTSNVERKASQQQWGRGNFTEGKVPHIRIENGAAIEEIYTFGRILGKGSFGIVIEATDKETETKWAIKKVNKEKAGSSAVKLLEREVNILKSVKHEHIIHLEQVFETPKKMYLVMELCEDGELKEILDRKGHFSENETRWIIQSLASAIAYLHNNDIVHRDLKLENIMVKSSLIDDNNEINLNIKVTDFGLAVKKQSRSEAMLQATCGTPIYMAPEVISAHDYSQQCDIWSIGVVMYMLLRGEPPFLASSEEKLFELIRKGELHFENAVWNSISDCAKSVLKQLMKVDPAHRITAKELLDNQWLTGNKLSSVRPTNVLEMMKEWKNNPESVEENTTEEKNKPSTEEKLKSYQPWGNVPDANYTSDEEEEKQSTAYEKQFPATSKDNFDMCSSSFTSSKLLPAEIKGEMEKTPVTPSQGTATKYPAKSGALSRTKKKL
Method: as §1, §2

PIP5K2A = biological target: T1, PIP5K2A (Homo sapiens, UniProt P48426); test: Kinobeads competition binding, L-363 cell lysate; design: endogenous in cells; host or cells: L-363 (treated with MG132 for three hours before harvest); settings: 10 μM free compound, L-363 lysate
T1 sequence (P48426 1-406): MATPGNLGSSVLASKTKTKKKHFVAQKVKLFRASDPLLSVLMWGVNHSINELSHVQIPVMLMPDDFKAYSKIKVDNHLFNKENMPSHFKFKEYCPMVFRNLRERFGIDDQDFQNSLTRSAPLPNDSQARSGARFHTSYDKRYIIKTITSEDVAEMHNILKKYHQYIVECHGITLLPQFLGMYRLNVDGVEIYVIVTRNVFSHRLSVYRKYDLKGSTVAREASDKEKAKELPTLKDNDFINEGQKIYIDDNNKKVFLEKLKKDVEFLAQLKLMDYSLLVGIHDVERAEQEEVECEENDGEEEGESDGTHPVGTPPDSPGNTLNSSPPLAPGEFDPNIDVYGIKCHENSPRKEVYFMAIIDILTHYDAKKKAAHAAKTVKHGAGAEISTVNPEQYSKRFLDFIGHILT
Method: as §1, §2

PKD3 = biological target: T2, PKD3 (Homo sapiens, UniProt O94806); test: Kinobeads competition binding, L-363 cell lysate; design: endogenous in cells; host or cells: L-363 (treated with MG132 for three hours before harvest); settings: 10 μM free compound, L-363 lysate
T2 sequence (O94806 1-890): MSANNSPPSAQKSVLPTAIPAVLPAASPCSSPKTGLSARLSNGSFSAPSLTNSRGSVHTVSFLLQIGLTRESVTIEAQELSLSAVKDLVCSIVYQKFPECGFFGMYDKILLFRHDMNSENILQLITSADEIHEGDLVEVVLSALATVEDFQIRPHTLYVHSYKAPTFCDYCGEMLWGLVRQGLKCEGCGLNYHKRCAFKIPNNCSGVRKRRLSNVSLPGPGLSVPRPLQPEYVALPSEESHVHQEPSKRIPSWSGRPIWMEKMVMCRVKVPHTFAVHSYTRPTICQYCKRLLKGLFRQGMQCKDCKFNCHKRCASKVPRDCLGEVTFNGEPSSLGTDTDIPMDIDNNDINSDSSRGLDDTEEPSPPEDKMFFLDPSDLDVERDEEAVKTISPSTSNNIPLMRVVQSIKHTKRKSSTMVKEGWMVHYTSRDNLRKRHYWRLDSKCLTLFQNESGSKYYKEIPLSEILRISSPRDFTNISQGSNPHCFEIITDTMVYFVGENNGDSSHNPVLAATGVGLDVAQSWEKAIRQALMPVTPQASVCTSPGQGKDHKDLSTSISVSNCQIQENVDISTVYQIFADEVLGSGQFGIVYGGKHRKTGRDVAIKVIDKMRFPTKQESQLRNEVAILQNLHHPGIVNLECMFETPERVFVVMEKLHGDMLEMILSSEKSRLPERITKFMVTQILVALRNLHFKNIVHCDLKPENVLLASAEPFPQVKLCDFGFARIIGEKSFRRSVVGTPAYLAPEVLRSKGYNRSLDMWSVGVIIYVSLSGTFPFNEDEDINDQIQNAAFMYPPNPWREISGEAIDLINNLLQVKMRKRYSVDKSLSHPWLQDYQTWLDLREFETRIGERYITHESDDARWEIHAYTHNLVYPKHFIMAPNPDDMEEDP
Method: as §1, §2

[1] = biological target: T3, kinases from mixed HeLa placenta lysates (Homo sapiens, UniProt P07332); test: Kinobeads competition binding with immobilized CZC25342, mixed HeLa placenta lysates (Example 5, Table 7); settings: kinase FES; 10 μM free compound; HeLa Placenta lysate mix
T3 construct: capturing and identification of kinases from mixed HeLa placenta lysates; endogenous in cells; host or cells: mixed lysate of HeLa cells and placenta tissue
T3 sequence (P07332 whole entry): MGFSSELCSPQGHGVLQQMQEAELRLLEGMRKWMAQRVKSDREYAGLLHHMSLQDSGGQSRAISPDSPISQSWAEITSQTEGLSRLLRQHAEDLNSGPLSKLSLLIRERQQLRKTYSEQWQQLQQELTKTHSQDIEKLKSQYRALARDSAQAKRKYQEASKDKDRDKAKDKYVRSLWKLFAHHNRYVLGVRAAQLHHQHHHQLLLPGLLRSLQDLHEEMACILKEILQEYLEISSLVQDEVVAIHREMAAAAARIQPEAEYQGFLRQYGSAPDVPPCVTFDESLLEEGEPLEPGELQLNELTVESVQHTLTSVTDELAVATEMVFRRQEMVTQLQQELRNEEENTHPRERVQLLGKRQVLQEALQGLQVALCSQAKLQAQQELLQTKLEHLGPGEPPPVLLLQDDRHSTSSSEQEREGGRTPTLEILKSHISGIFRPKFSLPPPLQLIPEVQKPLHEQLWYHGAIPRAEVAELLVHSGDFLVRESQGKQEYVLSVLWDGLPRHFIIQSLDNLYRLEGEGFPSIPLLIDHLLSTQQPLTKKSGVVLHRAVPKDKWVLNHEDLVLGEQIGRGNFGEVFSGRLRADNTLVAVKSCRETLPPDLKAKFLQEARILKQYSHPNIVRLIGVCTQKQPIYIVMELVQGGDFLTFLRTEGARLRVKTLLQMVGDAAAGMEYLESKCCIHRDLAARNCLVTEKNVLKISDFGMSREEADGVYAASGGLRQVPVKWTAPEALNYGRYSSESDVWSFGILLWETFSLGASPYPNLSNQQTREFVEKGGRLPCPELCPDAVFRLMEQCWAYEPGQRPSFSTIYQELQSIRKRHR
Method: as §1, with “2, CZC25342)” for “3, CZC31326)”, “11).” for “8).”, “2. The identified kinases are shown in Table 7 including the percent competition values for the sample to which 10 μM free compound had been added. In total of 83 different kinases were identified and competed by different degrees.” for “2.”

[2] = biological target: T4, kinases from mixed HeLa placenta lysates (Homo sapiens, UniProt P50750); test: as above; settings: kinase CDK9; 10 μM free compound; HeLa Placenta lysate mix
T4 construct: capturing and identification of kinases from mixed HeLa placenta lysates; endogenous in cells; host or cells: mixed lysate of HeLa cells and placenta tissue
T4 sequence (P50750 whole entry): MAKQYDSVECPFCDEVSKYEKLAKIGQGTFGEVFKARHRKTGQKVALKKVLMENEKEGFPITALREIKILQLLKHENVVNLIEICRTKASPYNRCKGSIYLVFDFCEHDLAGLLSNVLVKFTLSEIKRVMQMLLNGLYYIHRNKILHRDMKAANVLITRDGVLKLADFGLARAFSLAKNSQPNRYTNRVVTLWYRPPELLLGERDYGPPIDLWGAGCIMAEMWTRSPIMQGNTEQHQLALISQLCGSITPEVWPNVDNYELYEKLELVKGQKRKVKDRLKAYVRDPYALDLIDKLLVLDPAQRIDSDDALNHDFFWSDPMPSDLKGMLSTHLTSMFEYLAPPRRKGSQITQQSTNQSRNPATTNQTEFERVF
Method: as §1, with “2, CZC25342)” for “3, CZC31326)”, “11).” for “8).”, “2. The identified kinases are shown in Table 7 including the percent competition values for the sample to which 10 μM free compound had been added. In total of 83 different kinases were identified and competed by different degrees.” for “2.”

[3] = biological target: T5, kinases from mixed HeLa placenta lysates (Homo sapiens, UniProt Q13555); test: as above; settings: kinase CaMK2g; 10 μM free compound; HeLa Placenta lysate mix
T5 construct: capturing and identification of kinases from mixed HeLa placenta lysates; endogenous in cells; host or cells: mixed lysate of HeLa cells and placenta tissue
T5 sequence (Q13555 whole entry): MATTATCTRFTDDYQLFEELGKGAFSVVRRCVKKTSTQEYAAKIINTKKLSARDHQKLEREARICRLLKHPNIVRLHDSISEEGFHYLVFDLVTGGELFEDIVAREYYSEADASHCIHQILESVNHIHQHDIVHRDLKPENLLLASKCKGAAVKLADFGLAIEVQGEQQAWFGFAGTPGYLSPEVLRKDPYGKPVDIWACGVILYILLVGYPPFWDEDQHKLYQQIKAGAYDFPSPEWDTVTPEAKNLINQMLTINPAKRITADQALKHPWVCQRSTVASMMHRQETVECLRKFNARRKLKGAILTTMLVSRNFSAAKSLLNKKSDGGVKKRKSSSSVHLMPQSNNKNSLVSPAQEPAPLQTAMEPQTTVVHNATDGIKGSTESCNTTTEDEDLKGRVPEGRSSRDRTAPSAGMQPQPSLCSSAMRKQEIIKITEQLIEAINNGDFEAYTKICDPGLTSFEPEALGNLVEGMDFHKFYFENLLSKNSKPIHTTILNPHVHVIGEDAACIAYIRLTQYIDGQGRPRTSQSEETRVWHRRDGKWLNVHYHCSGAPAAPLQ
Method: as §1, with “2, CZC25342)” for “3, CZC31326)”, “11).” for “8).”, “2. The identified kinases are shown in Table 7 including the percent competition values for the sample to which 10 μM free compound had been added. In total of 83 different kinases were identified and competed by different degrees.” for “2.”

PLK4, sequence (O00444 whole entry): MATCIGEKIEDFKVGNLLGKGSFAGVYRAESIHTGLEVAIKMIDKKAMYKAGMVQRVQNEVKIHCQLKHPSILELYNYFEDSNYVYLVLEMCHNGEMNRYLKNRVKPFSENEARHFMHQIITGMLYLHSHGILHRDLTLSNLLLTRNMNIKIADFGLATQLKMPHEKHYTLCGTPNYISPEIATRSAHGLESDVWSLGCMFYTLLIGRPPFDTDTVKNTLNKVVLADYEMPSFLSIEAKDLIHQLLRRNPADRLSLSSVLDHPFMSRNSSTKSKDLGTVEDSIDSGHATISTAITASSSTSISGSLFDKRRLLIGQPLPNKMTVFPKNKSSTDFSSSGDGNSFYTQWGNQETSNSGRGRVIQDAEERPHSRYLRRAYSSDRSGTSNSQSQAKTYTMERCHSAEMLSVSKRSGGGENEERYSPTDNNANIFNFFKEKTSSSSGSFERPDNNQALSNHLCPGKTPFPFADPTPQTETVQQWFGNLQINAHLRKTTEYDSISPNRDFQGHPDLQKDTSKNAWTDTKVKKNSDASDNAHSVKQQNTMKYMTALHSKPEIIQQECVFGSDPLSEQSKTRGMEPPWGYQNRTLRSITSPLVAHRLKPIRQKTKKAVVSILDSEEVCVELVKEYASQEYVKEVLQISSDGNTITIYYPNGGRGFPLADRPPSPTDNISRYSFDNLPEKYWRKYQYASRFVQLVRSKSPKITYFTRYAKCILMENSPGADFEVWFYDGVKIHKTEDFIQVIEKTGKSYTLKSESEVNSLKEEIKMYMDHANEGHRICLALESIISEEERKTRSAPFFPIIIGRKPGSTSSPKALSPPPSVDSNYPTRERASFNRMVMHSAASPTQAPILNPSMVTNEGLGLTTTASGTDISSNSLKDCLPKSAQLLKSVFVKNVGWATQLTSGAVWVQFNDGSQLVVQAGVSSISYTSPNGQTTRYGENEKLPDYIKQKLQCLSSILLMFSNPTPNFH

| SMILES | inhibition at 10 µM (PLK4) | inhibition at 10 µM (STK33) | inhibition at 10 µM (PIP5K2A) | inhibition at 10 µM (PKD3) | Competition % FES [1] | Competition % CDK9 [2] | Competition % CaMK2g [3] |
| --- | --- | --- | --- | --- | --- | --- | --- |
| CS(=O)(=O)Nc1ccccc1Nc1nc(Nc2cccc(OCCN)c2)ncc1Cl [CZC31326, N-(2-(2-(3-(2-aminoethoxy)phenylamino)-5-chloropyrimidin-4-ylamino)phenyl)methanesulfonamide] | 91.2% | 95.7% | 96.4% | 98.1% |  |  |  |
| CS(=O)(=O)Nc1ccccc1Nc1nc(Nc2cccc(OCCN)c2)ncc1F [CZC25342, N-(2-(2-(3-(2-aminoethoxy)phenylamino)-5-fluoropyrimidin-4-ylamino)phenyl)methanesulfonamide] |  |  |  |  | 96.9% | 97.6% | 75.2% |
